This note sets out measurements from patent US7541472B2 (priority 2004, dated 2009).

Common to all, as to experiment: microbe, parasite or virus in culture
Holding throughout (format): cell-based

In one assay the test system is Septoria tritici. The note with it: for IC50: Zymoseptoria tritici, read-out: IC50 S. tritici.
The next assay has as its system Botrytis cinerea. The note with it: read-out: IC50 B. cinerea.
In another assay the test system is Stagonospora nodorum. Particulars: for IC50: Parastagonospora nodorum, read-out: IC50 S. nodorum.
The next assay concerns Phytophthora infestans. Particulars: for IC50 P. infestans: fungal growth on 1.5% agar minimal media, 20° C., 3-5 days, 3-fold serial dilutions, C.V. class in parentheses; for IC50: Phytophthora infestans, read-out: IC50 P. infestans.

SMILES strings stand for the structures. Some results are limits rather than exact numbers.

In the case of `C=C(C(=O)Oc1ccc(Cl)cc1)C(O)c1cccnc1` (stereo not drawn) [Compound 19, 4-Chlorophenyl β-hydroxy-α-methylene-3-pyridinepropanoate], the “IC50 S. tritici” value in the assay with Septoria tritici is given as “A (c)”. Further, in the assay on Botrytis cinerea, the IC50 (in general, the concentration that gives 50% inhibition) is above 25 µM. The “IC50 S. nodorum” value in the assay with Stagonospora nodorum is recorded as “C (c)”. In addition, the “IC50 P. infestans” value in the assay with Phytophthora infestans is on record as “A (c)”.
Turning to `C=C(C(=O)OCc1ccc(Oc2ccccc2)cc1)C(O)c1cccnc1` (stereo not drawn) [Compound 28, 4-Phenoxyphenylmethyl β-hydroxy-α-methylene-3-pyridinepropanoate], the IC50 with Septoria tritici is below 5 µM; with Stagonospora nodorum, 6 to 15 µM. For the same compound, the “IC50 P. infestans” value in the assay on Phytophthora infestans is “B (a)”.
Take `O=C(OCc1cccc(C(F)(F)F)c1)/C(=C\c1ccccc1)C(O)c1cccnc1` (stereo not drawn) [Compound 5, 3-(Trifluoromethyl)phenylmethyl Z-α-(α-hydroxy-3-pyridylmethyl)-3-phenylpropenoate]: the “IC50 S. tritici” value in the assay on Septoria tritici was “A (b)”. Further, the IC50 in the assay with Botrytis cinerea and with Phytophthora infestans was above 25 µM throughout. Besides, the “IC50 S. nodorum” value in the assay on Stagonospora nodorum is “A (b)”.
As for `C=C(C(=O)OCc1ccc(Oc2cccc(Cl)c2)cc1)C(O)c1cccnc1` (stereo not drawn) [Compound 24, 4-(3-Chlorophenoxy)phenylmethyl β-hydroxy-α-methylene-3-pyridinepropanoate], the “IC50 S. tritici” value in the assay on Septoria tritici is “A (d)”. The IC50 in the assay on Botrytis cinerea was above 25 µM; in the assay on Phytophthora infestans, 16 to 25 µM. In addition, the “IC50 S. nodorum” value in the assay on Stagonospora nodorum was “C (c)”.
On to `C=C(C(=O)OCc1ccc(Cl)c(Cl)c1)C(O)c1nccs1` (stereo not drawn) [Compound 4, 3,4-Dichlorophenylmethyl β-hydroxy-α-methylene-2-thiazolepropanoate], for which the “IC50 S. tritici” value in the assay with Septoria tritici is reported as “B (b)”. For the same compound, the IC50 in the assay with Botrytis cinerea was below 5 µM. Further, in the assay on Stagonospora nodorum, the “IC50 S. nodorum” value was “C (b)”. The “IC50 P. infestans” value with Phytophthora infestans is listed as “B (d)”.
Regarding `C=C(C(=O)OCc1ccc(Oc2ccccc2)cc1)C(O)c1nccs1` (stereo not drawn) [Compound 30, 4-Phenoxyphenylmethyl β-hydroxy-α-methylene-2-thiazolepropanoate], the figures for the IC50 in the assay with Septoria tritici, with Botrytis cinerea and in the assay on Stagonospora nodorum were 6 to 15 µM, 16 to 25 µM and above 25 µM, respectively. Moreover, the “IC50 P. infestans” value in the assay with Phytophthora infestans was “A (b)”.
